Measured values reported in patent US20020150968A1, “Glycoconjugate and sugar nucleotide synthesis using solid supports” (priority 2001, published 2002).
Like-named read-outs stand apart in the source and are kept apart here.

Key:
[1] = more active than morphine; cited from earlier work
[2] = test system: UDP-GalNAc pyrophosphorylase; conditions: substrate of UDP-GalNAc pyrophosphorylase; cited from earlier work
Sucrose synthase II = conditions: cited from earlier work
spHAS = spHAS (Streptococcus pyogenes, UniProt P0C0H0); conditions: cited from earlier work
CMP-NeuNAc synthetase = target: T1, CMP-NeuNAc synthetase (Escherichia coli O18:K1:H7, UniProt P13266); conditions: enzyme purified from E. coli K1; read-out: apparent Km; cited from earlier work
T1 construct: host or cells: E. coli K1

GalU = GalU (Escherichia coli, UniProt P0AEP3); assay: Enzymatic activity assay for GalU (two-step, UDP-glucose dehydrogenase coupled); assay type: biochemical, E. coli
Experimental: A two-step assay was carried out to detect the GalU activity. In the first step, GalU catalyzed reactions were performed at room temperature (24° C.) for 15 min in a final volume of 250 μl containing 1.6 mM Glc-1-P, 2.8 mM UTP, 10 mM MgCl2 and 100 μl enzyme solution. A blank was performed with water replacing Glc-1-P. The reaction was stopped by adding cold NaCl solution (0.5 ml, 0.15 M) and immediately transferring the tube to a boiling water bath for 5 min to terminate the reaction. The contents of the tubes were cooled to room temperature and vortexed vigorously to break up the coagulum. After centrifuge at 1400×g for 15 min, the clear supernatant (0.2 ml) was subjected to the UDP-glucose assay in a cuvette with a total volume of 1 ml containing 0.03 M Tris-acetate buffer, pH 8.7, 1.36 mM NAD, 0.2 ml sample (supernatant from the previous procedure) and 3.2 mU UDP-glucose dehydrogenase. The OD change at 340 nm was monitored by a UV spectrophotometer (HP 8453 Spectrophotometer, Hewlett-Packard Corn.).

GalT = assay: Enzymatic activity assay for GalT (two-step, UDP-glucose dehydrogenase coupled); assay type: biochemical, E. coli
Experimental: This was a two-step assay. In the first step, GalT catalyzed reactions were performed at room temperature (24° C.) for 15 min in a final volume of 250 μl HEPES buffer (100 mM, pH 7.4) containing 1.6 mM Gal-1-P, 2.8 mM UDP-glucose, and 100 μl of enzyme solution. A blank was performed with water replacing Gal-1-P. The reaction was stopped by adding cold NaCl solution (0.5 ml, 0.15 M) and immediately transferring the tube to a boiling water bath for 5 min to terminate the reaction. The contents of the tubes were cooled to room temperature and vortexed vigorously to break up the coagulum. After centrifugation at 1400×g for 15 min, the clear supernatant (0.2 ml) was subjected to the UDP-glucose assay in a cuvette with a total volume of 1 ml containing 0.03 M Tris-acetate buffer, pH 8.7, 1.36 mM NAD, 0.2 ml sample (supernatant from the previous procedure) and 3.2 mU UDP-glucose dehydrogenase. The OD change at 340 nm was monitored by a UV spectrophotometer (HP 8453 Spectrophotometer, Hewlett-Packard Corn.).

[3] = 25 ml lysate per 1 L cell culture
[4] = purified His-tagged enzyme, 1 U = 1 μmole product per minute at 24° C.

GalU, sequence (P0AEP3 whole entry): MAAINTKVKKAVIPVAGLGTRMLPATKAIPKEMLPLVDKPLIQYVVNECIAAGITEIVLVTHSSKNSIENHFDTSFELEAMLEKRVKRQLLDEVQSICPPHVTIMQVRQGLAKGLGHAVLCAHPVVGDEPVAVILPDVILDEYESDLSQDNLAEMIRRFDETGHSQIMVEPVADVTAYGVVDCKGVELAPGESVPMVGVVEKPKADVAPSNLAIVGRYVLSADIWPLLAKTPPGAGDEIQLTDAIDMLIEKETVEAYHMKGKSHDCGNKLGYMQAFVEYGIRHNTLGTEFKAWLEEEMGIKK
spHAS, sequence (P0C0H0 whole entry): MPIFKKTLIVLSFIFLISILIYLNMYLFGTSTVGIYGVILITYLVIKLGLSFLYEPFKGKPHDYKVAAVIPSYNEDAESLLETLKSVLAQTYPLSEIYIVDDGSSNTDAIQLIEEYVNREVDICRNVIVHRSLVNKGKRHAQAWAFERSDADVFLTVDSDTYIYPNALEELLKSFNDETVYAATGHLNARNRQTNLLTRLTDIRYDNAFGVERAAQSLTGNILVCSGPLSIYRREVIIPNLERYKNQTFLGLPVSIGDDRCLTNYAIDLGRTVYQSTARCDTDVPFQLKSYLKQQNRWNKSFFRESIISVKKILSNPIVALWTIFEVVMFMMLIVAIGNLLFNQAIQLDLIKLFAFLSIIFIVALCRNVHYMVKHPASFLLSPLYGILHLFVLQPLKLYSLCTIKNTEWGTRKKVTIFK
T1 sequence (P13266 whole entry): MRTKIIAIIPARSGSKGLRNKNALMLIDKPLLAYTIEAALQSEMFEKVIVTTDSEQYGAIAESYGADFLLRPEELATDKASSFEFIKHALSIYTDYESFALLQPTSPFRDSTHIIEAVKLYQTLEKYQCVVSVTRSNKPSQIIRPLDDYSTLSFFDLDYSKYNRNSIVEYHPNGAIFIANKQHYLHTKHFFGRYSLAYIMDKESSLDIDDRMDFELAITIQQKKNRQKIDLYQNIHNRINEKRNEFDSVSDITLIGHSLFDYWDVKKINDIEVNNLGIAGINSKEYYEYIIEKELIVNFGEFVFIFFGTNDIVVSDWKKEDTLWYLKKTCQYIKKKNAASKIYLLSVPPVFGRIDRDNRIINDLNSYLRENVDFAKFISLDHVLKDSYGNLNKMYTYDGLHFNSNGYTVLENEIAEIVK

In the case of `CN1CC[C@]23c4c5ccc(O)c4O[C@H]2[C@@H](O[C@@H]2O[C@H](C(=O)O)[C@@H](O)[C@H](O)[C@H]2O)C=C[C@H]3[C@H]1C5` [morphine-6-O-glucuronide], the “activity relative to morphine” value [1] is given as 50 times.

In the case of `CC(=O)NC1C(OP(=O)(O)O)OC(CO)C(O)C1O` (stereo not shown) [GlcNAc-1-P], the Km [2] is listed as 1100 µM.

For `Nc1ncnc2c1ncn2[C@@H]1O[C@H](COP(=O)(O)OP(=O)(O)OP(=O)(O)O)[C@@H](O)[C@H]1O` [ATP, adenosine 5′-triphosphate], the “effect on enzyme activity” value (Sucrose synthase II; both directions, in the presence of uridine substrate (UDP-Glc or UDP)) is given as “strong inhibition”.

In the case of `O=C(O)[C@H]1O[C@H](OP(=O)(O)OP(=O)(O)OC[C@H]2O[C@@H](n3ccc(=O)[nH]c3=O)[C@H](O)[C@@H]2O)[C@H](O)[C@@H](O)[C@@H]1O` [UDP-GlcA, uridine 5′-diphosphoglucuronic acid], the Km (spHAS) is listed as 40 ± 4 µM.

For `[Mg+2]` [Mg^2+], the “effect on enzyme activity” value (Sucrose synthase II; sucrose-cleavage direction) is listed as “little effect”.

For `CC(=O)N[C@H]1[C@@H](OP(=O)(O)OP(=O)(O)OC[C@H]2O[C@@H](n3ccc(=O)[nH]c3=O)[C@H](O)[C@@H]2O)O[C@H](CO)[C@@H](O)[C@@H]1O` [UDP-GlcNAc, uridine 5′-diphospho-N-acetylglucosamine], the Km (spHAS) is listed as 149 ± 3 µM.

In the case of `[Mn+2]` [Mn^2+], the “effect on enzyme activity” value (Sucrose synthase II; sucrose-cleavage direction) is listed as “strongly inhibited”.

For `Nc1ccn([C@@H]2O[C@H](COP(=O)(O)OP(=O)(O)OP(=O)(O)O)[C@@H](O)[C@H]2O)c(=O)n1` [CTP, Cytosine 5′-triphosphate], the Km (CMP-NeuNAc synthetase) is given as 310 µM.

For `CC(=O)N[C@H]1C(OP(=O)(O)O)O[C@H](CO)[C@H](O)[C@@H]1O` (stereo partly shown) [GalNAc-1-P, N-acetylgalactosamine-1-phosphate], the Km [2] is given as 290 µM.

B1: GalU: glucose-1-phosphate uridylyltransferase, E. coli, N-terminal six-histidine tag (protein, UniProt P0AEP3 2-302, looked up)
UTP--glucose-1-phosphate …: AAINTKVKKAVIPVAGLGTRMLPATKAIPKEMLPLVDKPLIQYVVNECIAAGITEIVLVTHSSKNSIENHFDTSFELEAMLEKRVKRQLLDEVQSICPPHVTIMQVRQGLAKGLGHAVLCAHPVVGDEPVAVILPDVILDEYESDLSQDNLAEMIRRFDETGHSQIMVEPVADVTAYGVVDCKGVELAPGESVPMVGVVEKPKADVAPSNLAIVGRYVLSADIWPLLAKTPPGAGDEIQLTDAIDMLIEKETVEAYHMKGKSHDCGNKLGYMQAFVEYGIRHNTLGTEFKAWLEEEMGIKK
modifications: N-terminal His6 tag
notes: glucose-1-phosphate uridylyltransferase, E. coli, N-terminal six-histidine tag
In the case of B1, the “activity of enzyme in the cell lysate” value (GalU; [3]) is reported as 100 U/L and the specific activity (GalU; [4]) is reported as 10 U/mg.

B2: GalT: galactose-1-phosphate uridylyltransferase, E. coli, N-terminal six-histidine tag (protein, UniProt P09148 1-348, looked up)
Galactose-1-phosphate …: MTQFNPVDHPHRRYNPLTGQWILVSPHRAKRPWQGAQETPAKQVLPAHDPDCFLCAGNVRVTGDKNPDYTGTYVFTNDFAALMSDTPDAPESHDPLMRCQSARGTSRVICFSPDHSKTLPELSVAALTEIVKTWQEQTAELGKTYPWVQVFENKGAAMGCSNPHPHGQIWANSFLPNEAEREDRLQKEYFAEQKSPMLVDYVQRELADGSRTVVETEHWLAVVPYWAAWPFETLLLPKAHVLRITDLTDAQRSDLALALKKLTSRYDNLFQCSFPYSMGWHGAPFNGEENQHWQLHAHFYPPLLRSATVRKFMVGYEMLAETQRDLTAEQAAERLRAVSDIHFRESGV
modifications: N-terminal His6 tag
notes: galactose-1-phosphate uridylyltransferase, E. coli, N-terminal six-histidine tag
For B2, the “activity of enzyme in the cell lysate” value (GalT; [3]) was 100 U/L and the specific activity (GalT; [4]) was 5 U/mg.
